We go through 15 molecules from ChEMBL document CHEMBL1150776, “Naturally occurring pentacyclic triterpenes as inhibitors of glycogen phosphorylase: synthesis, structure-activity relationships, and X-ray crystallographic studies” (J Med Chem, 2008).

The source made the active and inactive calls. The calls are words filed in the database; no cut-off is given here.

One test addresses T1, Glycogen phosphorylase, muscle form (Oryctolagus cuniculus) (UniProt P00489).
T1 sequence (whole entry): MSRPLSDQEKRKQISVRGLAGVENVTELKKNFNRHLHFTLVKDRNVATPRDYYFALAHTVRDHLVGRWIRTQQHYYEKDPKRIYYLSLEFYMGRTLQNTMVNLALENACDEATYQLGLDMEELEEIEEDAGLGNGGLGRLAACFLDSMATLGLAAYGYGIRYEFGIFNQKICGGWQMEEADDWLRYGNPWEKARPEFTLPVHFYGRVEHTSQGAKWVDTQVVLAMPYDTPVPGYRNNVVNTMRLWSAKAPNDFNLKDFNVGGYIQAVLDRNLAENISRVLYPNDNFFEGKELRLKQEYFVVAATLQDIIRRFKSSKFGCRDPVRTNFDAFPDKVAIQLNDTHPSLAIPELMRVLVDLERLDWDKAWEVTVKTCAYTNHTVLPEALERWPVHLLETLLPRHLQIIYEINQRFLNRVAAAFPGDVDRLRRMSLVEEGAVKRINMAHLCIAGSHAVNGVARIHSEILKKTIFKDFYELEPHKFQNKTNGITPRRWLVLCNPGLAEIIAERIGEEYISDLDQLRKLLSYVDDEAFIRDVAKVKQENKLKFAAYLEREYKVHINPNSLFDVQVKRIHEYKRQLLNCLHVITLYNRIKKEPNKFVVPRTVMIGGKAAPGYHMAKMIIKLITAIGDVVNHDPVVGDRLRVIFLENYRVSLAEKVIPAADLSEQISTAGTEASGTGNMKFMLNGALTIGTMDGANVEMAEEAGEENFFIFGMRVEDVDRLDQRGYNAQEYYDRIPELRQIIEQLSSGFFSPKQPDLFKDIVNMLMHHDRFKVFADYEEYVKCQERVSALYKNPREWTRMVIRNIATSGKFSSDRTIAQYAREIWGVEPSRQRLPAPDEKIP
The experiment in a line: Inhibition of rabbit muscle glycogen phosphorylase A assessed as phosphate release from glucose-1-phosphate at 2000 uM.
As for `C[C@H]1[C@H](C)CC[C@]2(C(=O)O[C@@H]3O[C@H](CO[C@@H]4O[C@H](CO)[C@@H](O[C@@H]5O[C@H](C)[C@H](O)[C@@H](O)[C@H]5O)[C@H](O)[C@H]4O)[C@@H](O)[C@H](O)[C@H]3O)CC[C@]3(C)C(=CC[C@@H]4[C@@]5(C)C[C@@H](O)[C@H](O)[C@@](C)(CO)[C@@H]5CC[C@]43C)[C@H]12`, the outcome was inactive.

In the next test the target is T1, Glycogen phosphorylase, muscle form (Oryctolagus cuniculus). Nature of the test: (§1) Inhibition of rabbit muscle glycogen phosphorylase A assessed as phosphate release from glucose-1-phosphate.
With `C[C@H]1[C@H](C)CC[C@]2(C(=O)O)CC[C@]3(C)C(=CC[C@@H]4[C@@]5(C)C[C@@H](O)[C@H](O)[C@@](C)(CO)[C@@H]5[C@H](O)C[C@]43C)[C@H]12`, the outcome was inactive. In the case of `C[C@H]1[C@H](C)CC[C@]2(C(=O)O[C@@H]3O[C@H](CO[C@@H]4O[C@H](CO)[C@@H](O[C@@H]5O[C@@H](C)[C@@H](O)[C@H](O)[C@@H]5O)[C@H](O)[C@H]4O)[C@@H](O)[C@H](O)[C@H]3O)CC[C@]3(C)C(=CC[C@@H]4[C@@]5(C)C[C@@H](O)[C@H](O)[C@@](C)(CO)[C@@H]5[C@H](O)C[C@]43C)[C@H]12`, the outcome was inactive.

In the next test the target is T2, Glycogen phosphorylase, muscle form (Oryctolagus cuniculus, UniProt P00489).
T2 sequence (P00489 whole entry): T1 sequence (whole entry)
Described as §1.
As for `C[C@H]1[C@H](C)CC[C@]2(C(=O)O[C@@H]3O[C@H](CO)[C@@H](O)[C@H](O)[C@H]3O)CC[C@]3(C)C(=CC[C@@H]4[C@@]5(C)CC[C@H](O)C(C)(C)[C@@H]5CC[C@]43C)[C@H]12`, the IC50 (usually the point on the concentration scale where inhibition reaches its midpoint) stood at 97 µM. In the case of `C[C@H]1[C@H](C)CC[C@]2(C(=O)O[C@@H]3O[C@H](CO)[C@@H](O)[C@H](O)[C@H]3O)CC[C@]3(C)C(=CC[C@@H]4[C@@]5(C)C[C@@H](O)[C@H](O)C(C)(C)[C@@H]5CC[C@]43C)[C@H]12`, the IC50 came to 106 µM. For `C=C(C)[C@@H]1CC[C@]2(C(=O)O)CC[C@]3(C)[C@H](CC[C@@H]4[C@@]5(C)CC[C@H](O)[C@@](C)(CO)[C@@H]5CC[C@]43C)[C@@H]12`, the IC50 turned out to be 16 µM.

In the case of `C=C(C)[C@@H]1CC[C@]2(C(=O)O)CC[C@]3(C)[C@H](CC[C@@H]4[C@@]5(C)CC[C@H](O)C(C)(C)[C@@H]5CC[C@]43C)[C@@H]12` [BETULINIC ACID], the IC50 turned out to be 43 µM. Turning to `C[C@H]1[C@H](C)CC[C@]2(C(=O)O)CC[C@]3(C)C(=CC[C@@H]4[C@@]5(C)CC[C@@H](O)C(C)(C)[C@@H]5CC[C@]43C)[C@H]12`, the IC50 was 19 µM. Consider `CC1(C)CC[C@]2(C(=O)O[C@@H]3O[C@H](CO)[C@@H](O)[C@H](O)[C@H]3O)CC[C@]3(C)C(=CC[C@@H]4[C@@]5(C)CC[C@H](O)C(C)(C)[C@@H]5CC[C@]43C)[C@@H]2C1`, for which the 50% inhibitory concentration (IC50) is 293 µM. On the same count and under the same terms, the figure for `C[C@H]1[C@H](C)CC[C@]2(C(=O)O)CC[C@]3(C)C(=CC[C@@H]4[C@@]5(C)CC[C@H](O)C(C)(C)[C@@H]5CC[C@]43C)[C@H]12` [URSOLIC ACID] is 9 µM. With `CC1(C)[C@@H](O[C@H]2O[C@H](C(=O)O)[C@@H](O)[C@H](O)[C@H]2O[C@@H]2O[C@H](C(=O)O)[C@@H](O)[C@H](O)[C@H]2O)CC[C@]2(C)[C@H]3C(=O)C=C4[C@@H]5C[C@@](C)(C(=O)O)CC[C@]5(C)CC[C@@]4(C)[C@]3(C)CC[C@@H]12` [GLYCYRRHIZIN], the IC50 was found to be 822 µM. Still for that read-out and setting: the figure for `C[C@H]1[C@H](C)CC[C@]2(C(=O)O)CC[C@]3(C)C(=CC[C@@H]4[C@@]5(C)CCC(=O)C(C)(C)[C@@H]5CC[C@]43C)[C@H]12` [URSONIC ACID] is 57 µM; for `CC1(C)[C@@H](O)CC[C@]2(C)[C@H]3C(=O)C=C4[C@@H]5C[C@@](C)(C(=O)O)CC[C@]5(C)CC[C@@]4(C)[C@]3(C)CC[C@@H]12` [ENOXOLONE] it is 66 µM; for `CC1(C)[C@@H](O)CC[C@]2(C)[C@H]3CC=C4[C@@H]5C[C@@](C)(C(=O)O)CC[C@]5(C)CC[C@@]4(C)[C@]3(C)CC[C@@H]12` it is 82 µM. `C=C(C)[C@@H]1CC[C@]2(CO)CC[C@]3(C)[C@H](CC[C@@H]4[C@@]5(C)CC[C@H](O)C(C)(C)[C@@H]5CC[C@]43C)[C@@H]12` [BETULIN]: the IC50 is 17 µM.
